Experimental findings from patent US8541406B2, “Thiadiazole derivatives for the treatment of neurodegenerative diseases” (NV reMYND, priority 2006, dated 2013) are described below.

Each structure is given as a SMILES string. “Also recorded” adds a separate entry of the source.

In one assay the test system is M17-SYNwt cells. In words: α-synuclein cytotoxicity assay (LDH leakage from paraquat-treated cells). Type of assay: cell-based, human. Conditions: Homo sapiens; Table 3, tested according to the procedure of example 12. Here is the method: 1,2,4-thiadazole compounds made according to the methods described herein were screened for activity using the α-synuclein cytotoxicity assay as described above. Dose responses were carried out on all compounds found to be active (10 point curves in duplicate).
For the molecule `O=S(=O)(c1cccs1)N1CCN(c2nc(Cc3ccc(F)cc3)ns2)CC1` [Example 50, 1-[thiophen-2-ylsulfonyl]-4-[3-(4-fluoro-benzyl)-1,2,4-thiadiazol-5-yl]piperazine], the EC50 is 468 nM.

The assay is the same for the next values; noted with them: Homo sapiens; inhibition of synuclein cytotoxicity, paraquat-treated M17-SYNwt cells, 10 point curves in duplicate.
As for `Cc1ccccc1NC(=O)N1CCN(c2nc(Cc3ccc(F)cc3)ns2)CC1C` (stereo not shown) [Compound 10, N-(2-methylphenyl)-4-[3-(4-fluorobenzyl)-1,2,4-thiadiazol-5-yl]-2-methylpiperazine-1-carboxamide], the EC50 was 0.6 µg/mL.
On the same count and under the same terms, with `Cc1cccc(C)c1NC(=O)N1CCN(c2nc(Cc3ccc(F)cc3)ns2)CC1C` (stereo not shown) [Compound 19, N-(2,6-dimethylphenyl)-4-[3-(4-fluorobenzyl)-1,2,4-thiadiazol-5-yl]-2-methylpiperazine-1-carboxamide] the figure was 0.2 µg/mL; with `Cc1ccc(Cc2nsc(N3CCN(S(=O)(=O)c4cc(Cl)ccc4Cl)C(C)C3)n2)cc1` (stereo not shown) [Compound 36, 1-[2,5-dichlorophenylsulfonyl]-4-[3-(4-methylbenzyl)-1,2,4-thiadiazol-5-yl]-2-methylpiperazine], 0.1 µg/mL.
`CC1CN(c2nc(Cc3ccc(F)cc3)ns2)CCN1S(=O)(=O)c1cccc(C(F)(F)F)c1` (stereo not shown) [Compound 46, 1-[3-trifluorophenylsulfonyl]-4-[3-(4-fluorobenzyl)-1,2,4-thiadiazol-5-yl]-2-methylpiperazine] displayed an EC50 of 1.34 µg/mL.
In the case of `O=S(=O)(c1ccc2ccccc2c1)N1CCN(c2nc(Cc3ccc(Cl)cc3)ns2)CC1` [Compound 52, 1-[2-naphthylsulfonyl]-4-[3-(4-chlorobenzyl)-1,2,4-thiadiazol-5-yl]piperazine], it took 0.1 µg/mL to reach a half-maximal effect (EC50).
`CC1CN(c2nc(Cc3ccc(F)cc3)ns2)CCN1C(=O)CCc1ccccc1` (stereo not shown) [Compound 89, 1-(3-phenylpropanoyl)-4-[3-(4-fluorobenzyl)-1,2,4-thiadiazol-5-yl]-2-methylpiperazine] showed an EC50 of 0.6 µg/mL.
As for `CCCCCCc1ccc(C(=O)NCCN2CCN(c3nc(Cc4ccc(F)cc4)ns3)CC2)cc1` [Compound 96, 4-hexyl-N-{2-[4-[3-(4-fluorobenzyl)-1,2,4-thiadiazol-5-yl]piperazin-1-yl]ethyl}benzamide], the response was half-maximal at 0.8 µg/mL (EC50).
Take `CCCCCc1ccc(C(=O)N2CCN(c3nc(Cc4ccc(C)cc4)ns3)CC2C)cc1` (stereo not shown) [Compound 134, 1-(4-pentylbenzoyl)-4-[3-(4-methylbenzyl)-1,2,4-thiadiazol-5-yl]-2-methylpiperazine]: the half-maximal effective concentration (EC50) came out at 0.3 µg/mL.
Same read-out and setting: as for `Cc1ccc(C(=O)N2CCN(c3nc(Cc4ccc(F)cc4)ns3)CC2C)cc1` (stereo not shown) [Compound 139, 1-(4-methylbenzoyl)-4-[3-(4-fluorobenzyl)-1,2,4-thiadiazol-5-yl]-2-methylpiperazine], the figure is 0.4 µg/mL; as for `CC1CN(c2nc(Cc3ccc(F)cc3)ns2)CCN1C(=O)c1cccc(Br)c1` (stereo not shown) [Compound 142, 1-(3-bromobenzoyl)-4-[3-(4-fluorobenzyl)-1,2,4-thiadiazol-5-yl]-2-methylpiperazine], 0.5 µg/mL.
For `COc1ccc(S(=O)(=O)N2CCN(c3nc(Cc4ccc(F)c(C)c4)ns3)CC2)cc1` [Compound 204], the EC50 was found to be 0.001 µg/mL.
With `O=S(=O)(c1ccc(O)cc1)N1CCN(c2nc(Cc3ccc(F)cc3)ns2)CC1` [Compound 217, 1-(4-hydroxybenzenesulfonyl)-4-[3-(4-fluoro-benzyl)-1,2,4-thiadiazol-5-yl]piperazine], the response was half-maximal at 0.033 µg/mL (EC50).

Still in this assay, the particulars now being: Table 3, tested according to the procedure of example 12.
Consider `COc1ccc(S(=O)(=O)N2CCN(c3nc(Cc4cccc(OC)c4)ns3)CC2C)cc1` (stereo not shown) [Compound 208, 1-[4-methoxyphenylsulfonyl]-4-[3-(3-methoxybenzyl)-1,2,4-thia-diazol-5-yl]-2-methyl-piperazine], for which the “% inh.” value was 92%.
On the same count and under the same terms, as for `O=S(=O)(c1cccs1)N1CCN(c2nc(Cc3ccc(F)cc3)ns2)CC1` [Example 50, 1-[thiophen-2-ylsulfonyl]-4-[3-(4-fluoro-benzyl)-1,2,4-thiadiazol-5-yl]piperazine], the figure is 89%.

The same assay, now with this note: paraquat-treated M17-SYNwt cells, dose response.
For the molecule `Cc1cccc(C)c1NC(=O)N1CCN(c2nc(Cc3ccc(F)cc3)ns2)CC1C` (stereo not shown) [Compound 19, N-(2,6-dimethylphenyl)-4-[3-(4-fluorobenzyl)-1,2,4-thiadiazol-5-yl]-2-methylpiperazine-1-carboxamide], the “reduction of LDH activity in the medium (inhibition of α-synuclein mediated toxicity), FIG. 2” value is “inhibition of α-synuclein mediated toxicity; also recorded: able, in a dose-dependent manner, to reduce LDH activity in the medium”.

Staying with this assay, now noted: percent inhibition of synuclein cytotoxicity, LDH release, paraquat-treated M17-SYNwt cells, at most effective concentration of test cmpd.
With `CCOc1ccc(NC(=O)N2CCN(c3nc(Cc4ccc(F)cc4)ns3)CC2C)cc1` (stereo not shown) [Compound 14, N-(4-ethoxyphenyl)-4-[3-(4-fluorobenzyl)-1,2,4-thiadiazol-5-yl]-2-methylpiperazine-1-carboxamide], the “% I” value was determined as 70%.
Consider `CC1CN(c2nc(Cc3ccc(F)cc3)ns2)CCN1C(=O)Nc1ccc(F)c(F)c1` (stereo not shown) [Compound 26, N-(3,4-difluorophenyl)-4-[3-(4-fluorobenzyl)-1,2,4-thiadiazol-5-yl]-2-methylpiperazine-1-carboxamide], for which the “% I” value is listed as 70%.
For `CC1CN(c2nc(Cc3ccc(F)cc3)ns2)CCN1S(=O)(=O)c1cccc(C(F)(F)F)c1` (stereo not shown) [Compound 46, 1-[3-trifluorophenylsulfonyl]-4-[3-(4-fluorobenzyl)-1,2,4-thiadiazol-5-yl]-2-methylpiperazine], the “% I” value worked out at 64%.
In the case of `CC1CN(c2nc(Cc3ccc(F)cc3)ns2)CCN1S(=O)(=O)c1ccc(C(C)(C)C)cc1` (stereo not shown) [Compound 54, 1-[4-tert-butylphenylsulfonyl]-4-[3-(4-fluorobenzyl)-1,2,4-thiadiazol-5-yl]-2-methylpiperazine], the “% I” value stood at 60%.
With `CC(C)(C)c1ccc(S(=O)(=O)N2CCN(c3nc(Cc4ccc(F)cc4)ns3)CC2)cc1` [Compound 61, 1-[4-ter-butylphenylsulfonyl]-4-[3-(4-fluorobenzyl)-1,2,4-thiadiazol-5-yl]piperazine], the “% I” value is on record as 47%.
Consider `O=S(=O)(Cc1ccccc1)N1CCN(c2nc(Cc3ccc(Cl)cc3)ns2)CC1` [Compound 76, 1-(benzylsulfonyl)-4-[3-(4-chlorobenzyl)-1,2,4-thiadiazol-5-yl]piperazine], for which the “% I” value came to 40%.
For the molecule `CCCCS(=O)(=O)N1CCN(c2nc(Cc3ccc(Cl)cc3)ns2)CC1` [Compound 81, 1-(butylsulfonyl)-4-[3-(4-chlorobenzyl)-1,2,4-thiadiazol-5-yl]piperazine], the “% I” value is listed as 80%.
In the case of `CCCCCCCCS(=O)(=O)N1CCN(c2nc(Cc3ccc(C)cc3)ns2)CC1` [Compound 82, 1-(octylsulfonyl)-4-[3-(4-methylbenzyl)-1,2,4-thiadiazol-5-yl]piperazine], the “% I” value came out at 50%.
`Cc1ccc(Cc2nsc(N3CCN(C/C=C/c4ccccc4)CC3)n2)cc1` [Compound 91, 1-[3-phenylprop-2-enyl]-4-[3-(4-methylbenzyl)-1,2,4-thiadiazol-5-yl]piperazine]: the “% I” value is 90%.
As to `CCCCCc1ccc(C(=O)NCCN2CCN(c3nc(Cc4ccc(F)cc4)ns3)CC2)cc1` [Compound 94, 4-pentyl-N-{2-[4-[3-(4-fluorobenzyl)-1,2,4-thiadiazol-5-yl]piperazin-1-yl]ethyl}benzamide], the “% I” value came to 90%.
Still for that read-out and setting: with `O=C(NCCN1CCN(c2nc(Cc3ccc(F)cc3)ns2)CC1)c1ccc(F)cc1` [Compound 102, 4-fluoro-N-{2-[4-[3-(4-fluorobenzyl)-1,2,4-thiadiazol-5-yl]piperazin-1-yl]ethyl}benzamide] the figure was 80%.
On the same count and under the same terms, with `O=C(Cc1ccc(F)cc1)NCCN1CCN(c2nc(Cc3ccc(F)cc3)ns2)CC1` [Compound 107, 2-(4-fluorophenyl)-N-{2-[4-[3-(4-fluorobenzyl)-1,2,4-thiadiazol-5-yl]piperazin-1-yl]ethyl}acetamide] the figure was 80%.
For `CC1CN(c2nc(Cc3ccc(F)cc3)ns2)CCN1C(=O)c1cccc(C(F)(F)F)c1` (stereo not shown) [Compound 145, 1-(3-trifluoromethylbenzoyl)-4-[3-(4-fluorobenzyl)-1,2,4-thiadiazol-5-yl]-2-methylpiperazine], the “% I” value came out at 60%.
The same measure, in the same setting: as for `O=C(c1cccc(F)c1)N1CCN(c2nc(Cc3ccc(Cl)cc3)ns2)CC1` [Compound 157, 1-(3-fluorobenzoyl)-4-[3-(4-chlorobenzyl)-1,2,4-thiadiazol-5-yl]piperazine], the figure is 70%; as for `Cc1ccc(Cc2nsc(N3CCN(C(=O)c4ccc(Br)cc4)CC3)n2)cc1` [Compound 164, 1-(4-bromobenzoyl)-4-[3-(4-methylbenzyl)-1,2,4-thiadiazol-5-yl]piperazine], 60%.
With `O=C(c1ccccc1)N1CCN(c2nc(Cc3ccc(F)cc3)ns2)CC1` [Compound 181, 1-benzoyl-4-[3-(4-fluorobenzyl)-1,2,4-thiadiazol-5-yl]piperazine], the “% I” value worked out at 60%.
Take `CCC(=O)Oc1ccc(S(=O)(=O)N2CCN(c3nc(Cc4ccc(F)cc4)ns3)CC2)cc1` [Compound 200, 1-(4-propionyloxy)benzene-sulfonyl-4-[3-(4-fluoro-benzyl)-1,2,4-thiadiazol-5-yl]piperazine]: the “% I” value was 80%.
With `COc1ccc(S(=O)(=O)N2CCN(c3nc(Cc4ccc(F)c(C)c4)ns3)CC2)cc1` [Compound 204], the “% I” value is listed as 90%.
